US20070202574A1, “Novel Saccharothrix Strain an Antibiotics Derived Therefrom, i.e. Mutactimycins and Aldgamycins” (Institut National Polytechnique de Toulouse, priority 2004, published 2007)
≈ marks a conversion by molar mass, not a printed value. Where “and” joins values, the source holds several entries; their conditions need not be identical. Identical values can stand only once. Entries after “also recorded” stand apart in the source; their conditions may differ.

Experiments:
[1] = system: Listeria monocytogenes CIP 82110; test: MIC, antimicrobial spectrum; type: cell-based; details: CIP82110, Listeria monocytogenes CIP 82110
[2] = system: Mucor ramannianus NRRL 1829; test: MIC, antimicrobial spectrum; type: cell-based; details: Umbelopsis ramanniana, NRRL1829
[3] = system: Bacillus subtilis ATCC 6633; test: MIC, antimicrobial spectrum; type: cell-based; details: for MIC: ATCC6633, Bacillus subtilis ATCC 6633
[4] = system: Staphylococcus aureus CIP 7625; test: MIC, antimicrobial spectrum; type: cell-based; details: CIP7625
[5] = system: Klebsiella pneumoniae CIP 82.91; test: MIC, antimicrobial spectrum; type: cell-based; details: for MIC: Klebsiella pneumoniae, CIP82, Klebsiella pneumoniae CIP 82.91; for activity in words: K. pneumoniae
[6] = system: Mycobacterium smegmatis ATCC 607; test: MIC, antimicrobial spectrum; type: cell-based; details: for MIC: Mycolicibacterium smegmatis, ATCC607, Mycobacterium smegmatis ATCC 607; for activity in words: Mycobacterium smegmatis
[7] = Relative solubility in solvents; type: physicochemical; details: value = list of solvents; for Relative solubility: Highly soluble (solvents) / Relative solubility: Insoluble (solvents) / Relative solubility: Medium soluble (solvents): wrapped cells given line by line
From the text: The antibiotics P11, PR, F and G are bright red in colour at neutral pH, yellow at acid pH and violet-blue at basic pH. P11 is the majority antibiotic and PR, the minority antibiotic. These antibiotics were the subject of the following […] analyses: UV visible light, infrared, mass spectrometry and NMR of the proton and carbon 13 (with studies of the correlations). Supplementary tests, such a solubility, determination of Rf by CCM and elemental analysis (the latter only for P11) were also carried out.

[8] = system: Micrococcus luteus ATCC 9314; test: MIC, antimicrobial spectrum; type: cell-based; details: for MIC: ATCC9314, Micrococcus luteus ATCC 9314; for activity in words: M. luteus
[9] = system: Escherichia coli ATCC 10536; test: MIC, antimicrobial spectrum; type: cell-based; details: ATCC10536
[10] = system: Pseudomonas syringae No 1882; test: MIC, antimicrobial spectrum; type: cell-based; details: NO1882
[11] = system: Agrobacterium tumefaciens No 2410; test: MIC, antimicrobial spectrum; type: cell-based; details: NO2410
[12] = system: Saccharomyces cerevisiae ATCC 4226; test: MIC, antimicrobial spectrum; type: cell-based; details: ATCC4226
[13] = system: Staphylococcus aureus CIP 53156; test: MIC, antimicrobial spectrum; type: cell-based; details: for MIC: Staphylococcus aureus, CIP53156, Staphylococcus aureus CIP 53156; for activity in words: Staphylococcus aureus CIP 53156
Bacillus subtilis = test: HPLC fractions tested against Bacillus subtilis (gelose diffusion test); type: cell-based; details: concentrated HPLC peak fractions
Experimental: A sample of the strain SA 103 taken from an immature inclined culture was inoculated into an Erlenmeyer flask containing 50 ml of the sterile culture medium containing 0.4t glucose, a 1% malt extract and a 0.4% yeast extract (adjusted to pH 7.2 before sterilisation) and placed in culture on a rotary stirrer (250 rpm) at 30° C. for two days. For producing antibiotics, 3 ml of culture medium were transferred to 500 ml Erlenmeyer flasks, each containing 100 ml of the above medium, and placed in culture for 10 days using the same conditions. The production of total antibacterial activity was carried out on a nutrient gelose, by a gelose diffusion test against Bacillus sutilis ATCC 6633. Inhibition of growth was examined after 24 hours of incubation at 30° C. Antimicrobial activity was estimated by measuring the diameter of the inhibition zone. The dry weight of the mycelium was determined in Eppendorf tubes filled with 1 ml of homogenized culture medium and dried at 105° C. for 24 hours (Pfefferle et al. J. Biotech. 80:135-142, 2000).
The butanolic extract, of a red colour, was concentrated on the Rotavapor. An aliquot of this extract was first sent through a Sephadex LH 20 column using methanol in double distilled water (80%) as the mobile phase. However, the separation of the antibiotics (visualisation by the naked eye and by the antibiography) was not conclusive. This step was therefore eliminated and the butanolic extract was purified directly by a reverse phase HPLC using a C18 column and isocratic conditions (63% methanol in water), a flow rate of 1.5 ml/min and detection at 220 nm. The fractions corresponding to all the peaks obtained on the profile were collected separately, concentrated and tested against Bacillus subtilis. […] These antibiotics were purified by HPLC after 3 to 4 reinjections in the same conditions as previously.

| SMILES | MIC [1] [µg/mL] | MIC [2] [µg/mL] | MIC [3] [µg/mL] | MIC [4] [µg/mL] | MIC [5] [µg/mL] | MIC [6] [µg/mL] | Relative solubility: Highly soluble (solvents) [7] | Relative solubility: Insoluble (solvents) [7] | Relative solubility: Medium soluble (solvents) [7] | MIC [8] [µg/mL] | MIC [9] [µg/mL] | MIC [10] [µg/mL] | MIC [11] [µg/mL] | MIC [12] [µg/mL] | MIC [13] [µg/mL] | activity of the collected HPLC fraction against Bacillus subtilis (Bacillus subtilis) | activity in words [3] | activity in words [5] | activity in words [6] | soluble in (solvents) [7] | further results |
| --- | --- | --- | --- | --- | --- | --- | --- | --- | --- | --- | --- | --- | --- | --- | --- | --- | --- | --- | --- | --- | --- |
| COc1cccc2c1C(=O)c1c(O)c3c(c(O)c1C2=O)CC(C)(O)CC3OC1OC(C)C(O)C(OC)C1O (stereo not drawn) [P11, mutactimycin C] | 50 (≈ 94.2 µM) | > 100 | 40 (≈ 75.4 µM) | > 100 | 5 (≈ 9.42 µM) | 75 (≈ 141 µM) | water, methanol, n-butanol, ethanol, 1-propanol and acetone; also recorded: MeOH, Me2CO, H20, n-; also recorded: BuOH, EtOH, 1-PrOH | n-hexane and toluene | CH2Cl2, CHCl3, EtOAc, and 2-PrOH | 5 (≈ 9.42 µM) | > 100 | > 100 | > 100 | > 100 | 10 (≈ 18.8 µM) | active |  |  |  |  |  |
| CC1OC(Oc2cccc3c2C(=O)c2c(O)c4c(c(O)c2C3=O)CC(C)(O)CC4O)C(O)C(O)C1O (stereo not drawn) [G, mutactimycin G] |  |  |  |  |  |  | n-BuOH, l-PrOH | chloroform, dichloromethane, ethyl acetate, n-hexane and toluene; also recorded: H2O, CH2Cl2, CHCl3, EtOAc,; also recorded: Me2CO, n-hexane, toluene | MeOH, EtOH |  |  |  |  |  |  | active | active | active | active | water, n-butanol, 1-propanol, methanol and ethanol | activity in words [8]: active; activity in words [13]: active |
| COC1C(O)C(C)OC(OC2CC(C)(O)Cc3c(O)c4c(c(O)c32)C(=O)c2c(OC3OC(C)C(O)C(O)C3O)cccc2C4=O)C1O (stereo not drawn) [PR, mutactimycin PR] | > 100 | > 100 | 75 (≈ 113 µM) | > 100 | 40 (≈ 60.4 µM) | > 100 | water, methanol and ethanol | chloroform, dichloromethane, ethyl acetate, n-hexane and toluene |  | 50 (≈ 75.5 µM) | > 100 | > 100 | > 100 | > 100 | 50 (≈ 75.5 µM) | active | active | active | active |  | Relative solubility: Highly soluble (solvents) ([7]; listed as mutactimycin PR): MeOH, EtOH, H2O; Relative solubility: Insoluble (solvents) ([7]; listed as mutactimycin PR): CH2Cl2, CHCl3,; also recorded: EtOAc, n-hexane,; also recorded: toluene; Relative solubility: Medium soluble (solvents) ([7]; listed as mutactimycin PR): Me2CO, n-BuOH, 1-; also recorded: PrOH, 2-PrOH; activity in words [8]: active; activity in words [13]: active |
| COc1cccc2c1C(=O)c1c(O)c3c(c(O)c1C2=O)CC(C)(O)CC3OC1OC(C)C(O)C(O)C1O (stereo not drawn) [F, mutactimycin F] |  |  |  |  |  |  | n-BuOH, 1-PrOH | n-hexane and toluene | MeOH, EtOH |  |  |  |  |  |  | active | active | active | active | water, n-butanol, 1-propanol and ethanol | Relative solubility: Insoluble (solvents) ([7]; listed as Mutactimycin F): H2O, CH2Cl2, CHCl3; also recorded: EtOAc, Me2CO, n-hexane,; also recorded: toluene; activity in words [8]: active; activity in words [13]: active |
| COC1C(OCC2C(C)OC(=O)/C=C/C(C)C(OC3OC(C)CC4(OC(=O)OC4C)C3O)C(C)CC(C)C(=O)/C=C/C3OC32)OC(C)C(O)C1OC (stereo not drawn) [P10a, aldgamycin G] | 30 (≈ 40.5 µM) |  | 1 (≈ 1.35 µM) |  | 0.1 (≈ 0.135 µM) | 50 (≈ 67.5 µM) | methanol, n-butanol, ethanol, 1 and 2-propnol, ethyl acetate, acetone, chloroform and dichloromethane; also recorded: MeOH, EtOH, Me2CO,; also recorded: n-BuOH, 1-PrOH, 2-; also recorded: PrOH, CH2Cl2,; also recorded: EtOAc, CHCl3 |  |  | 1 (≈ 1.35 µM) |  |  |  |  | 1 (≈ 1.35 µM) | active |  |  |  | n-butanol, 1 and 2-propanol, methanol, dichloromethane, ethyl acetate, chloroform, acetone and ethanol |  |
| COC1C(OCC2/C=C/C=C/C(=O)C(C)CC(C)C(OC3OC(C)CC(O)(C(C)O)C3O)C(C)/C=C/C(=O)OC2C)OC(C)C(O)C1OC (stereo not drawn) [P10b, aldgamycin P10b] | 30 (≈ 42.9 µM) | > 100 | 1 (≈ 1.43 µM) | > 100 | 0.1 (≈ 0.143 µM) | 50 (≈ 71.5 µM) | methanol, n-butanol, ethanol, 1 and 2-propnol, ethyl acetate, acetone, chloroform and dichloromethane | water and n-hexane |  | 1 (≈ 1.43 µM) | > 100 | > 100 | > 100 | > 100 | 1 (≈ 1.43 µM) | active |  |  |  |  |  |
| COC1C(OCC2C(C)OC(=O)/C=C/C(C)C(OC3OC(C)CC(O)(C(C)O)C3O)C(C)CC(C)C(=O)/C=C/C3OC32)OC(C)C(O)C1OC (stereo not drawn) [P8, aldgamycin H] |  | > 100 |  | > 100 |  |  | methanol, n-butanol, ethanol, 1 and 2-propnol, ethyl acetate, acetone, chloroform and dichloromethane; also recorded: MeOH, EtOR, Me2CO,; also recorded: n-BuOH, 1-PrOH, 2-; also recorded: PrOH, CH2Cl2,; also recorded: EtOAc, CHCl3 |  |  | 1 (≈ 1.4 µM) | > 100 | > 100 | > 100 | > 100 |  | active |  |  |  |  |  |
